# In US20180312493A1, “Antibiotic Compounds, Pharmaceutical Formulations Thereof And Methods And Uses Therefor” (Simon Fraser University, priority 2015, published 2018):
# Biological target: T1, MRSA Pyk (Staphylococcus aureus, UniProt Q6GG09)
# T1 construct: made in house; host or cells: E. coli BL-21 (DE3)
# Assay: MRSA pyruvate kinase (PK) activity, continuous LDH-coupled assay
# Assay type: biochemical, methicillin resistant S. aureus (MRSA252)
# Conditions: not given
# Text: Genomic DNA of MRSA strain Sanger 252 extracted using DNeasy Tissue Kit™ (Qiagen™) was used as a template to generate the His-tagged MRSA PK. Human cDNA from MCF-7 breast cancer cell line (courtesy of Dr. J Wong, BC Cancer Research Center (Vancouver, Canada)) was used as a template to generate the full-length human M2 PK enzyme. The following primer sets were used creating appropriate restriction sites (NdeI and XhoI sites underlined): For cloning of MRSA PK: M27F 5′-[…]-3′ and M27R 5′-[…]-3′, for cloning of human M2 PK isoform: hM2F 5′-[…]-3′ and hM2R 5′-[…]-3′. The resulting PCR fragments for each construct were cloned into the NdeI and XhoI unique sites of the bacterial expression vector pET-28a (+) (Novagen™). […] The sequence and the correct reading frame of all constructs were verified by sequencing. Human M1, R and L PK constructs in pET-28-a(+) vectors (courtesy of Dr. L. Cantley, Harvard Medical, School (Boston, USA)) were used to generate relevant recombinant His-tagged human PK isoforms.
# MRSA and human constructs in pET-28a(+) were used to express relevant recombinant PK proteins in E. coli BL-21 (DE3). The proteins were expressed and purified using Ni-NTA agarose (Qiagen™) according to the manufacturer's protocol. Briefly, cells were grown to an absorbance of 0.4-0.5 at 600 nm in 2×YT medium, then induced with 0.1 mM IPTG for 3 h at 20° C. Cells were lysed by sonication on ice (3×10-s bursts with a 30-s recovery between bursts) in lysis buffer (0.2 mg/ml lysozyme, 50 mM Tris pH 7.5, 10 mM MgCl2, 200 mM NaCl, 100 mM KCl, 10% glycerol, 10 mM imidazole, 0.5% NP-40 and 1 mM DTT containing Complete™ protease inhibitor). Cell lysates were cleared by centrifugation (18,000×g in a Beckman™ JA-20 rotor) for 20 min at 4° C. and PK isoforms were purified by batch binding to Ni-NTA resin. The resins were then packed in columns (1×2 cm) and washed with 400 column volumes lysis buffer containing 30 mM imidazole. His-tagged PK isoforms were eluted with the same buffer containing 300 mM imidazole. The proteins were dialyzed overnight at 4° C. against 2000 volumes of ice-cold 30 mM Tris pH 7.5, 25 mM KCl, 5 mM MgCl2, 10% glycerol and 1 mM DTT to remove imidazole. All purification steps were done at 4° C.; enzymes were flash-frozen and stored at −70° C. Enzymatic activity of frozen protein preparations was stable for at least 10 months and up to 5 freeze/thaw cycles. Purity and physical integrity of proteins were assessed using SDS-polyacrylamide gel electrophoresis (SDS-PAGE) followed by coomassie blue staining. Protein concentration was estimated by Bradford assay (Bio-Rad Protein Assay™) using bovine serum albumin as a standard.
# Candidate MRSA PK inhibitors were assayed for their ability to inhibit enzymatic activities of MRSA and human PKs. PK activity was determined using a continuous assay coupled to lactate dehydrogenase (LDH) in which the change in absorbance at 340 nm owing to oxidation of NADH was measured using a Benchmark Plus™ microplate spectrophotometer (Bio-Rad Laboratories, Hercules, Calif.). […] Reactions were initiated by the addition of 15 nM of one of the PK enzymes. PK activity proportional to the rate of change at 340 nm was expressed as specific activity (μmol/min/mg), which is defined as the amount of PK that catalyzes the formation of one micromole of either product per minute. Inhibitors were dissolved in DMSO with the final concentration of the solvent never exceeding 1% of the assay volume. IC50 values were calculated by curve fitting on a four-parameter dose-response model with variable slope using Graphpad Prism 5.0™ (GraphPad™ Software Inc., La Jolla, Calif.). In all studies, less than 10% of total PEP was exhausted during the reaction. Reactions were performed at 30° C. for up to 5 min. All values determined represent at least two measurements, in triplicate (Tables 1-6) or duplicate unless mentioned otherwise. […]
row,SMILES,IC50
1,"ON=C(c1c(/C=C/c2ccc(Cl)cc2)[nH]c2cc(Br)ccc12)C(F)(F)F (racemic) [Compound 19, 1-(6-Bromo-2-(4-chlorostyryl)-1H-indol-3-yl)-2,2,2-trifluoroethanone Oxime]",100 to 1000 nM
2,"O=C(NCCN1CCOCC1)c1c(/C=C/c2ccc(Cl)cc2)[nH]c2cc(Br)ccc12 [Compound 29, (E)-6-Bromo-2-(4-chlorostyryl)-N-(2-morpholinoethyl)-1H-indole-3-carboxamide]",> 1000 nM
3,"O=C(NCc1cccnc1)c1c(/C=C/c2ccc(Cl)nc2)[nH]c2cc(Br)ccc12 [Compound 37, (E)-6-Bromo-2-(2-(6-chloropyridin-3-yl)vinyl)-N-(pyridin-3-ylmethyl)-1 H-indole-3-carboxamide]",100 to 1000 nM
4,"COc1ccc(CCc2[nH]c3cc(Br)ccc3c2CCO)nc1 [Compound 71, 2-(6-Bromo-2-(2-(5-methoxypyridin-2-yl)ethyl)-1H-indol-3-yl)ethanol]",> 1000 nM
5,"CN(C)CCNC(=O)c1c(NCc2ccc(Cl)cc2)[nH]c2cc(Br)ccc12 [Compound 83, 6-bromo-2-(4-chlorobenzylamino)-N-(2-(dimethylamino)ethyl)-1H-indole-3-carboxamide]",> 1000 nM
6,"CC(=O)OCC(=O)Nc1c(CCc2ccc(Cl)cc2)[nH]c2cc(Br)ccc12 [Compound 97, 2-(6-Bromo-2-(4-chlorophenethyl)-1H-indol-3-ylamino)-2-oxoethyl Acetate]",> 1000 nM
7,"O=C(NCCCO)c1c(-c2cc3cc(Cl)ccc3[nH]2)[nH]c2cc(Br)ccc12 [Compound 133, 6-Bromo-5′-chloro-N-(3-hydroxypropyl)-1H,1′H-[2,2′-biindole]-3-carboxamide]",< 100 nM

# System: S. aureus (ATCC29213)
# Assay: In vitro susceptibility, broth microdilution (MIC)
# Assay type: cell-based
# Conditions: Staphylococcus aureus; S. aureus ATCC29213; 18-24 h, 37 C; read-out: Antimicrobial activity (MIC) S. aureus ATCC29213
# Text: Epidemic methicillin resistant S. aureus (MRSA) strain sequenced at the Sanger Centre (MRSA252, NRS71) was obtained from NARSA (Network on Antimicrobial Resistance in S. aureus). Methicillin sensitive S. aureus (ATCC 29213 and 25923), methicillin resistant S. aureus (ATCC BAA-1762), and Salmonella typhimurium (ATCC BAA-185) were obtained from ATCC, The Global Bioresource Center. Acinetobacter baumannii (ATCC 19606 and ATCC 17978), Klebsiella pneumonia (C238), vancomycin resistant Enterococci #2 (2010A) (VRE#2), MRSA (USA400, MW2) and Pseudomonas aeruginosa (PA0-1) were obtained from the laboratory of Dr B. B. Finlay at the University of British Columbia (Vancouver, Canada).
# The antimicrobial activities of PK inhibitor candidates were determined using the 96-well microtiter standard 2-fold serial broth microdilution method as described by CLSI (formerly NCCLS) with the various gram-positive and gram-negative bacteria species mentioned above. Bacteria from a single colony were grown, overnight in either BHI Broth (VRE), mueller hinton broth (S. aureus 29213; MRSA USA400, A. baumannii 19606, MRSA BAA-1762) or L-broth (P. aeruginosa, S. typhimurium, K. pneumonia and A. baumannii 17978). […] Culture plates were incubated for 18-24 h at 37° C., and optical density at 600 nm (OD600) was measured using a Benchmark Plus™ microplate spectrophotometer (Bio-Rad™). The absorbance control values for the series containing CAMHB and inhibitor were subtracted as background from the corresponding infected wells. Minimal inhibitory concentration (MIC) was defined as the lowest concentration of test compound leading to complete inhibition of cell growth in relation to compound-free control wells as determined by optical density. Vancomycin, methicillin and ciprofloxicin were used as reference compounds. All assays were run in triplicate or duplicate. Experiments were replicated at least twice to verify reproducibility using the above conditions.
row,SMILES,MIC
1,"ON=C(c1c(/C=C/c2ccc(Cl)cc2)[nH]c2cc(Br)ccc12)C(F)(F)F (racemic) [Compound 19, 1-(6-Bromo-2-(4-chlorostyryl)-1H-indol-3-yl)-2,2,2-trifluoroethanone Oxime]",0.5 µg/mL
2,"OC(c1c(CCc2cc(Cl)cc(Cl)c2)[nH]c2cc(Br)ccc12)(C(F)(F)F)C(F)(F)F [Compound 15, 2-(6-Bromo-2-(3,5-dichlorophenethyl)-1H-indol-3-yl)-1,1,1,3,3,3-hexafluoropropan-2-ol]",1 µg/mL
3,"CNC(=O)c1c(/C=C/c2ccc(Cl)cc2)[nH]c2cc(Br)ccc12 [Compound 20, (E)-6-Bromo-2-(4-chlorostyryl)-N-methyl-1H-indole-3-carboxamide]",64 µg/mL
4,"O=C(NCCN1CCN(C(=O)COCC(=O)N2CCN(CCNC(=O)c3c(/C=C/c4ccc(Cl)cc4)[nH]c4cc(Br)ccc34)CC2)CC1)c1c(/C=C/c2ccc(Cl)cc2)[nH]c2cc(Br)ccc12 [Compound 56, (E)-N,N′-((4,4′-(2,2′-oxybis(acetyl))bis(piperazine-4,1-diyl))bis(ethane-2,1-diyl))bis(6-bromo-2-((E)-4-chlorostyryl)-1H-indole-3-carboxamide)]",> 64 µg/mL
5,"NC(=O)N1CCN(CCNC(=O)c2c(-c3cc4cc(Cl)ccc4[nH]3)[nH]c3cc(Br)ccc23)CC1 [Compound 132, 6-bromo-N-(2-(4-carbamoylpiperazin-1-yl)ethyl)-5′-chloro-1H,1′H-2,2′-biindole-3-carboxamide]",> 64 µg/mL
6,"CS(=O)(=O)NC(=O)CNC(=O)c1c(-c2cc3cc(Cl)ccc3[nH]2)[nH]c2cc(Br)ccc12 [Compound 151, 6-bromo-5′-chloro-N-(2-(methylsulfonamido)-2-oxoethyl)-1H,1′H-[2,2′-biindole]-3-carboxamide]",> 64 µg/mL
7,"O=C(Nc1ccc(Cl)cc1)Nc1nc2ccccc2s1 [Compound 162, 1-(benzo[d]thiazol-2-yl)-3-(4-chlorophenyl)urea]",> 64 µg/mL
8,"O=C(Nc1ccccn1)Nc1nc2cc(Br)ccc2s1 [Compound 163, 1-(5-bromobenzo[d]thiazol-2-yl)-3-(pyridin-2-yl)urea]",> 64 µg/mL
9,"O=C(Nc1ccc(Cl)cc1)Nc1nc2ccccc2o1 [Compound 164, 1-(benzo[d]oxazol-2-yl)-3-(4-chlorophenyl)urea]",> 64 µg/mL
10,"COc1ccc2sc(NC(=O)Nc3ccc(Cl)cc3)nc2c1 [Compound 165, 1-(4-chlorophenyl)-3-(5-methoxybenzo[d]thiazol-2-yl)urea]",> 64 µg/mL
11,"COC(=O)[C@@H]1CN(CCNC(=O)c2c(-c3cc4cc(Cl)ccc4[nH]3)[nH]c3cc(Br)ccc23)CCN1 [Compound 227, Methyl (S)-4-(2-(6-bromo-5′-chloro-1H,1′H-[2,2′-biindole]-3-carboxamido)ethyl)piperazine-2-carboxylate]",> 64 µg/mL

# Second part, the molecule after the results:
row,MIC,SMILES
1,> 64 µg/mL,"O=C(Nc1ccc(Cl)cc1)Nc1nc2cc([N+](=O)[O-])ccc2s1 [Compound 167, 1-(4-chlorophenyl)-3-(5-nitrobenzo[d]thiazol-2-yl)urea]"
2,> 64 µg/mL,"CCOC(=O)c1ccc2sc(NC(=O)Nc3ccc(Cl)cc3)nc2c1 [Compound 171, ethyl 2-(3-(4-chlorophenyl)ureido)benzo[d]thiazole-5-carboxylate]"
3,> 64 µg/mL,"O=C(Nc1ccc(Cl)cc1)Nc1nc2cc(Cl)ccc2o1 [Compound 177, 1-(5-chlorobenzo[d]oxazol-2-yl)-3-(4-chlorophenyl)urea]"
4,> 64 µg/mL,"O=C(Nc1nc2cc(Cl)ccc2o1)NC1CCCCC1 [Compound 178, 1-(5-chlorobenzo[d]oxazol-2-yl)-3-cyclohexylurea]"
5,> 64 µg/mL,"O=C(Nc1ccc(Cl)cc1)Nc1nc2cc(F)ccc2o1 [Compound 179, 1-(4-chlorophenyl)-3-(5-fluorobenzo[d]oxazol-2-yl)urea]"
6,> 64 µg/mL,"O=C(Nc1nc2cc(F)ccc2o1)NC1CCCCC1 [Compound 180, 1-cyclohexyl-3-(5-fluorobenzo[d]oxazol-2-yl)urea]"
7,> 64 µg/mL,"O=C(O)C1CNCCN1C(=O)c1c(-c2cc3cc(Cl)ccc3[nH]2)[nH]c2cc(Br)ccc12 (centres unmarked) [Compound 225, 1-(6-bromo-5′-chloro-1H,1′H-[2,2′-biindole]-3-carbonyl)piperazine-2-carboxylic Acid]"
8,> 64 µg/mL,"COC(=O)[C@@H]1CN(CCNC(=O)c2c(-c3cc4cc(Cl)ccc4[nH]3)[nH]c3cc(Br)ccc23)CCN1C(=O)OCc1ccccc1 [Compound 226, 1-benzyl 2-methyl (S)-4-(2-(6-bromo-5′-chloro-1H,1′H-[2,2′-biindole]-3-carboxamido)ethyl)piperazine-1,2-dicarboxylate]"
